Experimental data from patent publication US7943651B2, “Compounds” (Glaxo Group Limited, priority 2006, dated 2011).

test system: NFkB activity; assay: Glucocorticoid Mediated Transrepression of NFkB Activity; type: cell-based; details: Human A549 lung epithelial cells, NFkB dependent ELAM promoter alkaline phosphatase reporter, 3 ng/ml TNFα
From the text: Glucocorticoid Mediated Transrepression of NFkB Activity
Human A549 lung epithelial cells were engineered to contain a secreted placental alkaline phosphatase gene under the control of the distal region of the NFkB dependent ELAM promoter as previously described in Ray, K. P., Farrow, S., Daly, M., Talabot, F. and Searle, N. “Induction of the E-selectin promoter by interleukin 1 and tumour necrosis factor alpha, and inhibition by glucocorticoids” Biochemical Journal (1997) 328: 707-15.
Compounds were solvated and diluted in DMSO, and transferred directly into assay plates such that the final concentration of DMSO was 0.7%. Following the addition of cells (40K per well), plates were incubated for 1 hr prior to the addition of 3 ng/ml human recombinant TNFα. Following continued incubation for 16 hr, alkaline phosphatase activity was determined by measuring the change in optical density at 405 nm with time following the addition of 0.7 volumes of assay buffer (1 mg/ml p-nitrophenylphosphate dissolved in 1M diethanolamine, 0.28M NaCl, 0.5 mM MgCl2). Dose response curves were constructed from which EC50 values were estimated.

SMILES	EC50 [nM]
COc1ccc(F)cc1C(C)(C)CC(O)(CNc1cc(C)cc2c1cnn2-c1cccc(C(=O)N[C@H](C)C(N)=O)c1)C(F)(F)F (mixture of isomers) [Example 3, N-[(1R)-2-Amino-1-methyl-2-oxoethyl]-3-(4-{[4-[5-fluoro-2-(methyloxy)phenyl]-2-hydroxy-4-methyl-2-(trifluoromethyl)pentyl]amino}-6-methyl-1H-indazol-1-yl)benzamide]	< 3.16
COc1ccc(F)cc1C(C)(C)CC(O)(CNc1cc(C)cc2c1cnn2-c1cccc(C(=O)N2CCC[C@@H]2C(N)=O)c1)C(F)(F)F (mixture of isomers) [Example 7, 1-{[3-(4-{[4-[5-Fluoro-2-(methyloxy)phenyl]-2-hydroxy-4-methyl-2-(trifluoromethyl)pentyl]amino}-6-methyl-1H-indazol-1-yl)phenyl]carbonyl}-D-prolinamide]	< 3.16
COc1ccc(F)cc1C(C)(C)CC(O)(CNc1cc(C)cc2c1cnn2-c1cccc(C(=O)NCC(N)=O)c1)C(F)(F)F (racemic) [Example 1, N-(2-Amino-2-oxoethyl)-3-(4-{[4-[5-fluoro-2-(methyloxy)phenyl]-2-hydroxy-4-methyl-2-(trifluoromethyl)pentyl]amino}-6-methyl-1H-indazol-1-yl)benzamide]	< 3.16
COc1ccc(F)cc1C(C)(C)CC(O)(CNc1cc(C)cc2c1cnn2-c1cccc(C(=O)N(C)CC(N)=O)c1)C(F)(F)F (racemic) [Example 2, N-(2-Amino-2-oxoethyl)-3-(4-{[4-[5-fluoro-2-(methyloxy)phenyl]-2-hydroxy-4-methyl-2-(trifluoromethyl)pentyl]amino}-6-methyl-1H-indazol-1-yl)-N-methylbenzamide]	< 3.16
COc1ccc(F)cc1C(C)(C)CC(O)(CNc1cc(C)cc2c1cnn2-c1cccc(C(=O)NC(C)(C)C(N)=O)c1)C(F)(F)F (racemic) [Example 5, N-(2-Amino-1,1-dimethyl-2-oxoethyl)-3-(4-{[4-[5-fluoro-2-(methyloxy)phenyl]-2-hydroxy-4-methyl-2-(trifluoromethyl)pentyl]amino}-6-methyl-1H-indazol-1-yl)benzamide]	< 3.16
COc1ccc(F)cc1C(C)(C)CC(O)(CNc1cc(C)cc2c1cnn2-c1cccc(C(=O)NCC(N)=O)c1)C(F)(F)F (single isomer, unassigned) [Example 1-A, N-(2-amino-2-oxoethyl)-3-(4-{[4-[5-fluoro-2-(methyloxy)phenyl]-2-hydroxy-4-methyl-2-(trifluoromethyl)pentyl]amino}-6-methyl-1H-indazol-1-yl)benzamide]	< 3.16
COc1ccc(F)cc1C(C)(C)CC(O)(CNc1cc(C)cc2c1cnn2-c1cccc(C(=O)N(C)CC(N)=O)c1)C(F)(F)F (single isomer, unassigned) [Example 2-A, N-(2-amino-2-oxoethyl)-3-(4-{[4-[5-fluoro-2-(methyloxy)phenyl]-2-hydroxy-4-methyl-2-(trifluoromethyl)pentyl]amino}-6-methyl-1H-indazol-1-yl)-N-methylbenzamide]	< 3.16
COc1ccc(F)cc1C(C)(C)CC(O)(CNc1cc(C)cc2c1cnn2-c1cccc(C(=O)N[C@H](C)C(N)=O)c1)C(F)(F)F (single isomer, unassigned) [Example 3-A]	< 3.16
COc1ccc(F)cc1C(C)(C)CC(O)(CNc1cc(C)cc2c1cnn2-c1cccc(C(=O)NC(C)(C)C(N)=O)c1)C(F)(F)F (single isomer, unassigned) [Example 5-A, N-(2-amino-1,1-dimethyl-2-oxoethyl)-3-(4-{[4-[5-fluoro-2-(methyloxy)phenyl]-2-hydroxy-4-methyl-2-(trifluoromethyl)pentyl]amino}-6-methyl-1H-indazol-1-yl)benzamide]	< 3.16
COc1ccc(F)cc1C(C)(C)C[C@@](O)(CNc1cc(C)cc2c1cnn2-c1cccc(C(=O)N2CCC[C@@H]2C(N)=O)c1)C(F)(F)F (single isomer, unassigned) [Example 7-A]	< 3.16
COc1ccc(F)cc1C(C)(C)CC(O)(CNc1cc(C)cc2c1cnn2-c1cccc(C(=O)N[C@@H](C)C(N)=O)c1)C(F)(F)F (stereo partly drawn) [Example 4, N-[(1S)-2-Amino-1-methyl-2-oxoethyl]-3-(4-{[4-[5-fluoro-2-(methyloxy)phenyl]-2-hydroxy-4-methyl-2-(trifluoromethyl)pentyl]amino}-6-methyl-1H-indazol-1-yl)benzamide]	< 3.16
COc1ccc(F)cc1C(C)(C)CC(O)(CNc1cc(C)cc2c1cnn2-c1cccc(C(=O)N2CCC[C@H]2C(N)=O)c1)C(F)(F)F (stereo partly drawn) [Example 6, 1-{[3-(4-{[4-[5-Fluoro-2-(methyloxy)phenyl]-2-hydroxy-4-methyl-2-(trifluoromethyl)pentyl]amino}-6-methyl-1H-indazol-1-yl)phenyl]carbonyl}-L-prolinamide]	< 3.16

Further lines, results first:

EC50 [nM]	SMILES
< 3.16	COc1ccc(F)cc1C(C)(C)CC(O)(CNc1cc(C)cc2c1cnn2-c1cccc(C(=O)N[C@@H](CO)C(N)=O)c1)C(F)(F)F (stereo partly drawn) [Example 8, N-[(1S)-2-Amino-1-(hydroxymethyl)-2-oxoethyl]-3-(4-{[4-[5-fluoro-2-(methloxy)phenyl]-2-hydroxy-4-methyl-2-(trifluoromethyl)pentyl]amino}-6-methyl-1H-indazol-1-yl)benzamide]
< 3.16	Cc1cc(NCC(O)(CC(C)(C)c2cc(F)ccc2O)C(F)(F)F)c2cnn(-c3cccc(C(=O)N(C)CC(N)=O)c3)c2c1 (stereo not shown) [Example 9, N-(2-Amino-2-oxoethyl)-3-(4-{[4-(5-fluoro-2-hydroxyphenyl)-2-hydroxy-4-methyl-2-(trifluoromethyl)pentyl]amino}-6-methyl-1H-indazol-1-yl)-N-methylbenzamide]
< 3.16	Cc1cc(NCC(O)(CC(C)(C)c2cc(F)ccc2O)C(F)(F)F)c2cnn(-c3cccc(C(=O)NCC(N)=O)c3)c2c1 (stereo not shown) [Example 10, N-(2-Amino-2-oxoethyl)-3-(4-{[4-(5-fluoro-2-hydroxyphenyl)-2-hydroxy-4-methyl-2-(trifluoromethyl)pentyl]amino}-6-methyl-1H-indazol-1-yl)benzamide]
< 3.16	Cc1cc(NCC(O)(CC(C)(C)c2cc(F)ccc2O)C(F)(F)F)c2cnn(-c3cccc(C(=O)N[C@H](C)C(N)=O)c3)c2c1 (stereo partly drawn) [Example 11, N-[(1R)-2-Amino-1-methyl-2-oxoethyl]-3-(4-{[4-(5-fluoro-2-hydroxyphenyl)-2-hydroxy-4-methyl-2-(trifluoromethyl)pentyl]amino}-6-methyl-1H-indazol-1-yl)benzamide]
< 3.16	Cc1cc(NCC(O)(CC(C)(C)c2cc(F)ccc2O)C(F)(F)F)c2cnn(-c3cccc(C(=O)N4CCC[C@@H]4C(N)=O)c3)c2c1 (stereo partly drawn) [Example 12, 1-{[3-(4-{[4-(5-Fluoro-2-hydroxyphenyl)-2-hydroxy-4-methyl-2-(trifluoromethyl)pentyl]amino}-6-methyl-1H-indazol-1-yl)phenyl]carbonyl}-D-prolinamide]
< 3.16	CNC(=O)CNC(=O)c1cccc(-n2ncc3c(NCC(O)(CC(C)(C)c4cc(F)ccc4OC)C(F)(F)F)cc(C)cc32)c1 (stereo not shown) [Example 13, 3-(4-{[4-[5-Fluoro-2-(methyloxy)phenyl]-2-hydroxy-4-methyl-2-(trifluoromethyl)pentyl]amino}-6-methyl-1H-indazol-1-yl)-N-[2-(methylamino)-2-oxoethyl]benzamide]
< 3.16	COc1ccc(F)cc1C(C)(C)CC(O)(CNc1cc(C)cc2c1cnn2-c1cccc(C(=O)N(C)[C@@H](C)C(N)=O)c1)C(F)(F)F (stereo partly drawn) [Example 14, N-[(1S)-2-Amino-1-methyl-2-oxoethyl]-3-(4-{[4-[5-fluoro-2-(methloxy)phenyl]-2-hydroxy-4-methyl-2-(trifluoromethyl)pentyl]amino}-6-methyl-1H-indazol-1-yl)-N-methylbenzamide]
< 3.16	COc1ccc(F)cc1C(C)(C)CC(O)(CNc1cc(C)cc2c1cnn2-c1cccc(C(=O)N(C)[C@H](C)C(N)=O)c1)C(F)(F)F (stereo partly drawn) [Example 15, N-[(1R)-2-Amino-1-methyl-2-oxoethyl]-3-(4-{[4-[5-fluoro-2-(methloxy)phenyl]-2-hydroxy-4-methyl-2-(trifluoromethyl)-pentyl]amino}-6-methyl-1H-indazol-1-yl)-N-methylbenzamide]
< 3.16	COc1ccc(F)cc1C(C)(C)CC(O)(CNc1cc(C)cc2c1cnn2-c1cccc(C(=O)N[C@H](CO)C(N)=O)c1)C(F)(F)F (stereo partly drawn) [Example 16, N-[(1R)-2-Amino-1-(hydroxymethyl)-2-oxoethyl]-3-(4-{[4-[5-fluoro-2-(methloxy)phenyl]-2-hydroxy-4-methyl-2-(trifluoromethyl)pentyl]amino}-6-methyl-1H-indazol-1-yl)benzamide]
< 3.16	Cc1cc(NC[C@](O)(CC(C)(C)c2cc(F)ccc2O)C(F)(F)F)c2cnn(-c3cccc(C(=O)N4CCC[C@@H]4C(N)=O)c3)c2c1 [Example 17, 1-{[3-(4-{[(2R)-4-(5-Fluoro-2-hydroxyphenyl)-2-hydroxy-4-methyl-2-(trifluoromethyl)pentyl]amino}-6-methyl-1H-indazol-1-yl)phenyl]carbonyl}-D-prolinamide]
